For one data set, the system named is human p21 mRNA. Nature of the data set: In vitro cleavage assay of human p21 mRNA. It is filed as biochemical. Particulars: in vitro cleavage of p21 mRNA (SEQ ID NO: 1); RNA substrate 500 nM, 37° C. 60 min, agarose gel. The source says: Total RNA was isolates from senescent IMR-90 cells using Nucleospin® RNA kit (Macherey-Nagel™). cDNA was synthesized with gene-specific reverse primers using M-MLV Reverse Transcriptase (Promega), according to the manufacturer's protocol. To generate template for in vitro transcription (IVT) reaction, the cDNA was PCR amplified using KAPA Taq EXtra HotStart® ReadyMix™ PCR Kit (R&D). PCR product was run on 1.5% agarose TAE gel, the correct band size was cut and DNA was cleaned using Wizard® SV Gel and PCR Clean-Up System kit (Promega). IVT was performed using HiScribe™ T7 High Yield RNA Synthesis Kit (NEB). Samples were then treated with DNase I (New England Biolabs) and incubated for 15 minutes at 37° C. IVT product was run on 1.5% agarose TBE gel, the correct band size was cut and RNA was cleaned using QIAquick® Gel Extraction Kit (Qiagen). See primer sequences in Table 1, below.
RNA substrate was diluted with Molecular Biology Grade Water (Biological Industries) and used in in vitro cleavage assay. A 20 μl reaction system comprising RNA substrate (final concentration 500 nM), 2 μl 10× reaction buffer (50 mM Tris-HCl pH 7.4, 100 mM NaCl, 10 mM MgCl2) and 1 μl DNAzyme (10 μM) (as depicted in Table 2, below) was mixed. Reactions were incubated at 37° C. for 60 min. 2×RNA L.D. (Thermo Fisher) was added to each sample. Samples were heated at 70° C. for 30 sec, centrifuged and loaded onto 1.5% agarose TBE gels. Quantification was performed using Image Lab software (Bio Rad).

The test system of data set [1] is senescent human IMR-90 fibroblast cells. It is filed as cell-based. Particulars: increasing concentrations (FIGS. 6A-C, 12A-C). The procedure: Human IMR-90, BJ, WI-38 fibroblasts and REC epithelial cells were obtained from ATCC and grown at 5% oxygen. IMR-90 and REC cells were maintained in DMEM medium comprising 100 units per ml of penicillin, […] of streptomycin and 10% fetal bovine serum. BJ and WI-38 cells were maintained in EMEM medium comprising 100 units per ml of penicillin, […] of streptomycin, 10% fetal bovine serum, 1% Pyruvate, 1% L-Glutamine, mLFs were isolated according to standard procedures [Seluanov, A., et al. J Vis Exp (2010) (44):2033] and grown at 5% oxygen. Cells were maintained in EMEM medium comprising 100 units per ml of penicillin, […] of streptomycin and 15% fetal bovine serum.
DNA damage induced senescence (DIS) was induced by etoposide treatment (E1383, Sigma) at a concentration of […] for IMR-90, BJ, and WI-38, 16 μM for mLF and 12.5 μM for REC for a duration of 48 hours. Cells acquired the senescence phenotype 7 days post treatment (determined by SA-beta-gal staining).
Oncogene Induced Senescence (OIS) was induced by means of retroviral infection with H-RasG12 (pLNCX2) at 5% oxygen. Retroviruses were packaged, and infections were performed as described below.
Replicative Induced Senescence (RIS) was induced by long-term passaging of the cells in tissue culture. Cells acquired the senescence phenotype after 40 population doublings.
Primary target cells (IMR-90, BJ, […]) were plated in 24-well plates at 100,000 cells per well. Cells were transfected with different concentrations of DNAzymes (as depicted in Table 2, below) using Lipofectamine™ 2000 (Invitrogen) according to manufacturer instructions. The percentage of survival was determined based on quantification of remaining adherent cells using PrestoBlue® reagent (A13262, Life Technologies Ltd.) relative to Lipofectamine™ only control and compared to Scramble DNAzyme (Dz_Scramble) [Scramble Arm (Scr A) sequence: ATCTTCCTFggctagctacaacgaCGCCTCTCC, SEQ ID NO: 5, or Scramble catalytic core (Scr B) sequence: AGGAGAACAacagtaactggcgacGGGATGAGG, SEQ ID NO: 86] treated cells, 3-6 days following transfection.

The next data set concerns p21 mRNA. Nature of the data set: Quantitative RT-PCR of p21 mRNA in senescent cells. The data set is classed as cell-based, human. Particulars: over 24 hours following treatment, 2000 nM (FIG. 5D). The protocol:
Total RNA was extracted from IMR-90 cells using NucleoSpin® RNA (Macherey-Nagel™), according to the manufacturer protocol. Complementary DNA was prepared using the M-MLV Reverse Transcriptase (Promega), according to the manufacturer protocol. Quantitative real-time PCR was performed using the SYBR Green PCR master-mix (Applied Biosystems) on a CFX96 Real-Time PCR System (Bio Rad). See primer sequences in Table 1, above.

The next data set deals with healthy C57/B6 mice. Kind of data set: In-vivo safety of DNAzyme in mice. The procedure: 8 weeks old male and female C57/BL6 were treated intranasally with DNAzyme 1670 for 14 days. DNAzyme was administered in three concentrations: 40, 200 and 1000 μg. PBS treated mice served as control. Body weight, viability, clinical signs and behavior were monitored daily. On day 14, blood was collected using cardiac puncture and mice were sacrificed thereafter. Blood analyses were performed by AML (Central Lab Services). Hematology was performed using Advia-2120 (Siemens Healthineers). Biochemistry was performed using COBAS® 6000 (Roche Diagnostics).

[invdT] = inverted (3'-3') thymidine

As for “DNAzyme 1986: SEQ ID NO: 72: GCAATGAAtccgagccggacgaGGGGAGGGA (DNA GCAATGAATCCGAGCCGGACGAGGGGAGGGA; DNA, backbone and methylation of C not given here)”, the Validated cleavage entry in the data set on human p21 mRNA was “validated for mediating cleavage of p21 mRNA”.
On the same count and under the same terms, the result for “DNAzyme 1719: SEQ ID NO: 57: GGGGTGGGAggctagctacaacgaAGGCACCTC (DNA GGGGTGGGAGGCTAGCTACAACGAAGGCACCTC; DNA, backbone and methylation of C not given here)” reads “validated for mediating cleavage of p21 mRNA”; that for “DNAzyme 495: SEQ ID NO: 29: GAAGTTCCAggctagctacaacgaCGCTCACGG (DNA GAAGTTCCAGGCTAGCTACAACGACGCTCACGG; DNA, backbone and methylation of C not given here)”, “validated for mediating cleavage of p21 mRNA”; that for “DNAzyme 1736: SEQ ID NO: 58: CCATTGAGtccgagccggacgaGGGGGTGGG (DNA CCATTGAGTCCGAGCCGGACGAGGGGGTGGG; DNA, backbone and methylation of C not given here)”, “validated for mediating cleavage of p21 mRNA”.
The same measure, in the same setting: the value for “DNAzyme 1116: SEQ ID NO: 41: AAAGGAGAAggctagctacaacgaACGGGAUGA (DNA AAAGGAGAAGGCTAGCTACAACGAACGGGAUGA; DNA, backbone, methylation of C and T or U not given here)” was “validated for mediating cleavage of p21 mRNA”.
In the case of “DNAzyme 1967: SEQ ID NO: 70: TGGGGTGGAggctagctacaacgaGAGGAAGGT (DNA TGGGGTGGAGGCTAGCTACAACGAGAGGAAGGT; DNA, backbone and methylation of C not given here)”, the Validated cleavage result in the data set with human p21 mRNA is “validated for mediating cleavage of p21 mRNA”.
Still for that read-out and setting: the result for “DNAzyme 1684: SEQ ID NO: 56: GAGAGGGTAggctagctacaacgaTGAAGGGAA (DNA GAGAGGGTAGGCTAGCTACAACGATGAAGGGAA; DNA, backbone and methylation of C not given here)” reads “validated for mediating cleavage of p21 mRNA”.
Consider “DNAzyme 985: SEQ ID NO: 36: GGGGGCGGtccgagccggacgaAGGGTATGT (GGGGGCGGTCCGAGCCGGACGAAGGGTATGT; DNA, backbone and methylation of C not given here)”, for which the “selectivity of killing, senescent versus growing IMR-90 cells” value in data set [1] is on record as “wide range of selective doses”. Moreover, the Validated cleavage result in the data set on human p21 mRNA is on record as “validated for mediating cleavage of p21 mRNA”. The “p21 mRNA knockdown” value in the data set with p21 mRNA is 73%.
“DNAzyme 1003: SEQ ID NO: 37: GCCAGAGGtccgagccggacgaGGGGGGCAG (DNA GCCAGAGGTCCGAGCCGGACGAGGGGGGCAG; DNA, backbone and methylation of C not given here)”: in the data set on human p21 mRNA, the Validated cleavage entry was “validated for mediating cleavage of p21 mRNA”.
On the same count and under the same terms, the result for “DNAzyme 2266: SEQ ID NO: 78: AGAGGTTTAggctagctacaacgaAGTCTAGGT (DNA AGAGGTTTAGGCTAGCTACAACGAAGTCTAGGT; DNA, backbone and methylation of C not given here)” reads “validated for mediating cleavage of p21 mRNA”; that for “DNAzyme 1524: SEQ ID NO: 48: GAGGGGCCAggctagctacaacgaGAGGGCAGG (DNA GAGGGGCCAGGCTAGCTACAACGAGAGGGCAGG; DNA, backbone and methylation of C not given here)”, “validated for mediating cleavage of p21 mRNA”; that for “DNAzyme 1976: SEQ ID NO: 71: GGGGAGGGAggctagctacaacgaGGGGTGGAT (DNA GGGGAGGGAGGCTAGCTACAACGAGGGGTGGAT; DNA, backbone and methylation of C not given here)”, “validated for mediating cleavage of p21 mRNA”.
On the same count and under the same terms, the value for “DNAzyme 1455: SEQ ID NO: 45: AGGGGGGTAggctagctacaacgaCAAGAGCCA (DNA AGGGGGGTAGGCTAGCTACAACGACAAGAGCCA; DNA, backbone and methylation of C not given here)” was “validated for mediating cleavage of p21 mRNA”.
For “DNAzyme 1504: SEQ ID NO: 47: GGGGTGGTtccgagccggacgaGCTCCAGGA (DNA GGGGTGGTTCCGAGCCGGACGAGCTCCAGGA; DNA, backbone and methylation of C not given here)”, the Validated cleavage result in the data set with human p21 mRNA is reported as “validated for mediating cleavage of p21 mRNA”.
On the same count and under the same terms, the result for “DNAzyme 974: SEQ ID NO: 35: GGGTATGTAggctagctacaacgaATGAGGAGG (GGGTATGTAGGCTAGCTACAACGAATGAGGAGG; DNA, backbone and methylation of C not given here)” reads “validated for mediating cleavage of p21 mRNA”; that for “DNAzyme 1851: SEQ ID NO: 64: GTGCCACCAggctagctacaacgaATGGGACCC (DNA GTGCCACCAGGCTAGCTACAACGAATGGGACCC; DNA, backbone and methylation of C not given here)”, “validated for mediating cleavage of p21 mRNA”.
Same read-out and setting: the result for “DNAzyme 1987: SEQ ID NO: 73: TGCAATGAAggctagctacaacgaTGGGGAGGG (DNA TGCAATGAAGGCTAGCTACAACGATGGGGAGGG; DNA, backbone and methylation of C not given here)” reads “validated for mediating cleavage of p21 mRNA”.
Regarding “DNAzyme 1013: SEQ ID NO: 38: TAATTCTAAggctagctacaacgaGCCAGAGGC (DNA TAATTCTAAGGCTAGCTACAACGAGCCAGAGGC; DNA, backbone and methylation of C not given here)”, the Validated cleavage result in the data set on human p21 mRNA was “validated for mediating cleavage of p21 mRNA”.
For the substance “DNAzyme 1670 comprising a 3′Inverted dT: DNAzyme 1670 (SEQ ID NO: 54) with a 3′ inverted dT modification (DNA GGGAAAGGAGGCTAGCTACAACGAAAGGGGGAG; DNA, all phosphodiester, 3' [invdT], methylation of C not given here; further chemistry not fully specified)”, in the data set on healthy C57/B6 mice (2 week endpoint (FIGS. 13G-O)), the “blood tests: complete blood count and biochemistry parameters” value is reported as “safe profile”. For the same substance, the “signs of pain or distress” value in the data set on healthy C57/B6 mice (40, 200, 1000 micrograms intranasally daily for 2 weeks) is recorded as “no obvious signs of pain or distress”. Besides, in the data set with healthy C57/B6 mice (40, 200, 1000 micrograms intranasally daily for 2 weeks (FIG. 13F)), the “body weight between groups” value was “no significant differences”.

For the origin of these results see US11879140B2, “P21 mRNA targeting DNAzymes” (1E Therapeutics Ltd., priority 2020, dated 2024).
